Source: patent US20060069132A1, “Azolecarboxamide herbicides” (priority 2004, published 2006)

Experiments:
Experiment in all cases: Test E pre-/postemergence herbicide test
green foxtail = type: in vivo, Setaria viridis
Source text: (§1) Seeds of plant species selected from bipinnate beggarticks (Bidens bipinnata L.), hairy beggarticks (Bidens radiata Thuill.), bermudagrass (Cynodon dactylon (L.) Pers.), Surinam grass (Urochloa decumbens (Staph) R. D. Webster, previously named Brachiaria decumbens Stapf), large crabgrass (Digitaria sanguinalis (L.) Scop.), green foxtail (Setaria viridis (L.) P. Beauv.), goosegrass (Eleusine indica (L.) Gaertn.), johnsongrass (Sorghum halepense (L.) Pers.), kochia (Kochia scoparia (L.) Schrad.), pitted morningglory (Ipomoea lacunosa L.), purple nutsedge (Cyperus rotundus L.), common ragweed (Ambrosia elatior L.), mustard (Brassica nigra (L.) W. D. J. Koch), guineagrass (Panicum maximum Jacq.), dallisgrass (Paspalum dilatatum Poir.), barnyardgrass (Echinochloa crus-galli (L). P. Beauv.), southern sandbur (Cenchrus echinatus L.), common sowthistle (Sonchus oleraceous L.), prickly sida (Sida spinosa L.), Italian ryegrass (Lolium multiflorum Lam.), common purslane (Portulaca oleracea L.), broadleaf signalgrass (Brachiaria platyphylla (Griseb.) Nash), common groundsel (Senecio vulgaris L.), common chickweed (Stellaria media (L.) Vill/Cyr.), tropical spiderwort (Commelina benghalensis L.), annual bluegrass (Poa annua L.), downy bromegrass (Bromus tectorum L.), itchgrass (Rottboellia cochinchinensis (L.) L.f.), quackgrass (Elytrigia repens (L.) Nevski), Canada horseweed (Erigeron Canadensis L.), field bindweed (Convolvulus arvensis L.), spotted spurge (Euphorbia maculata L.), common mallow (Malva sylvestris (=s silvestris) L.), and Russian thistle (Salsola kali L. ssp. Ruthenica (Iljin) Soo) were planted and treated preemergence with test chemicals formulated in a non-phytotoxic solvent mixture which included a surfactant.
(§2) At the same time, plants selected from these weed species were treated with postemergence applications of some of the test chemicals formulated in the same manner. Plants ranged in height from 2 to 18 cm (1- to 4-leaf stage) for postemergence treatments. Treated plants and controls were maintained in a greenhouse for 12 to 14 days, after which time all species were compared to controls and visually evaluated. Plant response ratings, summarized in Table E, are based on a scale of 0 to 100 where 0 is no effect and 100 is complete control. A dash (-) response means no test result.

common ragweed = type: in vivo, Ambrosia elatior
Source text: as §1, §2

dallisgrass = type: in vivo, Paspalum dilatatum
Source text: as §1, §2

southern sandbur = type: in vivo, Cenchrus echinatus
Source text: as §1, §2

annual bluegrass = type: in vivo, Poa annua
Source text: as §1, §2

large crabgrass = type: in vivo, Digitaria sanguinalis
Source text: as §1, §2

johnsongrass = type: in vivo, Sorghum halepense
Source text: as §1, §2

goosegrass = type: in vivo, Eleusine indica
Source text: as §1, §2

[1] = Postemergence, 250 g ai/ha, scale 0 to 100
[2] = Preemergence, 62 g ai/ha, scale 0 to 100
[3] = Preemergence, 125 g ai/ha, scale 0 (no effect) to 100 (complete control)
[4] = Preemergence, 250 g ai/ha, scale 0 (no effect) to 100 (complete control)
[5] = Preemergence, 500 g ai/ha, scale 0 (no effect) to 100 (complete control)
[6] = postemergence, 125 g ai/ha, scale 0 to 100
[7] = postemergence, 62 g ai/ha, scale 0 to 100
[8] = Postemergence, 500 g ai/ha, scale 0 to 100
[9] = Preemergence, 125 g ai/ha, scale 0 to 100

CCNC(=O)c1ccc(F)c(NC(=O)c2cc(C(C)(C)C)nn2CC)c1 [Compound 2, 3-(1,1-dimethylethyl)-1-ethyl-N-[5-[(ethylamino)carbonyl]-2-fluorophenyl]-1H-pyrazole-5-carboxamide]
Plant response rating, Foxtail, Green (green foxtail; [1]): 95 | Plant response rating, Foxtail, Green (green foxtail; [2]): 40 | Plant response rating, Foxtail, Green (green foxtail; [3]): 80 | Plant response rating, Foxtail, Green (green foxtail; [4]): 100 | Plant response rating, Foxtail, Green (green foxtail; [5]): 100 | Plant response rating, Foxtail, Green (green foxtail; [6]): 90 | Plant response rating, Foxtail, Green (green foxtail; [7]): 60 | Plant response rating, Ragweed (common ragweed; [2]): 20 | Plant response rating, Ragweed (common ragweed; [3]): 60 | Plant response rating, Ragweed (common ragweed; [4]): 70 | Plant response rating, Ragweed (common ragweed; [5]): 85 | Plant response rating, Ragweed (common ragweed; [6]): 80 | Plant response rating, Ragweed (common ragweed; [7]): 60 | Plant response rating, Dallisgrass (dallisgrass; [1]): 90 | Plant response rating, Dallisgrass (dallisgrass; [2]): 60 | Plant response rating, Dallisgrass (dallisgrass; [3]): 90 | Plant response rating, Dallisgrass (dallisgrass; [4]): 95 | Plant response rating, Dallisgrass (dallisgrass; [5]): 95 | Plant response rating, Dallisgrass (dallisgrass; [6]): 80 | Plant response rating, Dallisgrass (dallisgrass; [7]): 75 | Plant response rating, Sandbur (southern sandbur; [1]): 95 | Plant response rating, Sandbur (southern sandbur; [2]): 60 | Plant response rating, Sandbur (southern sandbur; [3]): 70 | Plant response rating, Sandbur (southern sandbur; [4]): 80 | Plant response rating, Sandbur (southern sandbur; [5]): 100 | Plant response rating, Sandbur (southern sandbur; [6]): 75 | Plant response rating, Sandbur (southern sandbur; [7]): 65 | Plant response rating, Bluegrass (annual bluegrass; [1]): 100 | Plant response rating, Bluegrass (annual bluegrass; [2]): 95 | Plant response rating, Bluegrass (annual bluegrass; [3]): 100 | Plant response rating, Bluegrass (annual bluegrass; [4]): 100 | Plant response rating, Bluegrass (annual bluegrass; [5]): 100 | Plant response rating, Bluegrass (annual bluegrass; [6]): 98 | Plant response rating, Bluegrass (annual bluegrass; [7]): 90 | Plant response rating, Crabgrass, Large (large crabgrass; [1]): 98 | Plant response rating, Crabgrass, Large (large crabgrass; [2]): 70 | Plant response rating, Crabgrass, Large (large crabgrass; [3]): 80 | Plant response rating, Crabgrass, Large (large crabgrass; [4]): 100 | Plant response rating, Crabgrass, Large (large crabgrass; [5]): 100 | Plant response rating, Crabgrass, Large (large crabgrass; [6]): 95 | Plant response rating, Crabgrass, Large (large crabgrass; [7]): 90 | Plant response rating, Johnsongrass (johnsongrass; [1]): 100 | Plant response rating, Johnsongrass (johnsongrass; [2]): 90 | Plant response rating, Johnsongrass (johnsongrass; [3]): 90 | Plant response rating, Johnsongrass (johnsongrass; [4]): 100 | Plant response rating, Johnsongrass (johnsongrass; [5]): 100 | Plant response rating, Johnsongrass (johnsongrass; [6]): 90 | Plant response rating, Johnsongrass (johnsongrass; [7]): 80 | Plant response rating, Goosegrass (goosegrass; [1]): 98 | Plant response rating, Goosegrass (goosegrass; [2]): 80 | Plant response rating, Goosegrass (goosegrass; [3]): 90 | Plant response rating, Goosegrass (goosegrass; [4]): 95 | Plant response rating, Goosegrass (goosegrass; [5]): 95 | Plant response rating, Goosegrass (goosegrass; [6]): 95 | Plant response rating, Goosegrass (goosegrass; [7]): 95

CCn1nc(C(C)(C)C)cc1C(=O)Nc1cccc(C(N)=O)n1 [Compound 162, 6-[[[3-(1,1-dimethylethyl)-1-ethyl-1H-pyrazol-5-yl]carbonyl]amino]-2-pyridinecarboxamide]
Plant response rating, Foxtail, Green (green foxtail; [8]): 95 | Plant response rating, Foxtail, Green (green foxtail; [1]): 85 | Plant response rating, Foxtail, Green (green foxtail; [2]): 30 | Plant response rating, Foxtail, Green (green foxtail; [9]): 85 | Plant response rating, Foxtail, Green (green foxtail; [4]): 100 | Plant response rating, Foxtail, Green (green foxtail; [5]): 100 | Plant response rating, Foxtail, Green (green foxtail; [6]): 50 | Plant response rating, Foxtail, Green (green foxtail; [7]): 30 | Plant response rating, Ragweed (common ragweed; [8]): 90 | Plant response rating, Ragweed (common ragweed; [1]): 80 | Plant response rating, Ragweed (common ragweed; [2]): 20 | Plant response rating, Ragweed (common ragweed; [9]): 60 | Plant response rating, Ragweed (common ragweed; [4]): 75 | Plant response rating, Ragweed (common ragweed; [5]): 95 | Plant response rating, Ragweed (common ragweed; [6]): 75 | Plant response rating, Ragweed (common ragweed; [7]): 50 | Plant response rating, Dallisgrass (dallisgrass; [8]): 85 | Plant response rating, Dallisgrass (dallisgrass; [1]): 70 | Plant response rating, Dallisgrass (dallisgrass; [2]): 70 | Plant response rating, Dallisgrass (dallisgrass; [9]): 95 | Plant response rating, Dallisgrass (dallisgrass; [4]): 95 | Plant response rating, Dallisgrass (dallisgrass; [5]): 95 | Plant response rating, Dallisgrass (dallisgrass; [6]): 40 | Plant response rating, Dallisgrass (dallisgrass; [7]): 20 | Plant response rating, Sandbur (southern sandbur; [8]): 90 | Plant response rating, Sandbur (southern sandbur; [1]): 80 | Plant response rating, Sandbur (southern sandbur; [2]): 20 | Plant response rating, Sandbur (southern sandbur; [9]): 70 | Plant response rating, Sandbur (southern sandbur; [4]): 80 | Plant response rating, Sandbur (southern sandbur; [5]): 80 | Plant response rating, Sandbur (southern sandbur; [6]): 50 | Plant response rating, Sandbur (southern sandbur; [7]): 20 | Plant response rating, Bluegrass (annual bluegrass; [8]): 98 | Plant response rating, Bluegrass (annual bluegrass; [1]): 98 | Plant response rating, Bluegrass (annual bluegrass; [2]): 100 | Plant response rating, Bluegrass (annual bluegrass; [9]): 100 | Plant response rating, Bluegrass (annual bluegrass; [4]): 100 | Plant response rating, Bluegrass (annual bluegrass; [5]): 100 | Plant response rating, Bluegrass (annual bluegrass; [6]): 95 | Plant response rating, Bluegrass (annual bluegrass; [7]): 90 | Plant response rating, Crabgrass, Large (large crabgrass; [8]): 95 | Plant response rating, Crabgrass, Large (large crabgrass; [1]): 90 | Plant response rating, Crabgrass, Large (large crabgrass; [2]): 50 | Plant response rating, Crabgrass, Large (large crabgrass; [9]): 90 | Plant response rating, Crabgrass, Large (large crabgrass; [4]): 95 | Plant response rating, Crabgrass, Large (large crabgrass; [5]): 100 | Plant response rating, Crabgrass, Large (large crabgrass; [6]): 50 | Plant response rating, Crabgrass, Large (large crabgrass; [7]): 30 | Plant response rating, Johnsongrass (johnsongrass; [8]): 100 | Plant response rating, Johnsongrass (johnsongrass; [1]): 100 | Plant response rating, Johnsongrass (johnsongrass; [2]): 60 | Plant response rating, Johnsongrass (johnsongrass; [9]): 100 | Plant response rating, Johnsongrass (johnsongrass; [4]): 100 | Plant response rating, Johnsongrass (johnsongrass; [5]): 100 | Plant response rating, Johnsongrass (johnsongrass; [6]): 80 | Plant response rating, Johnsongrass (johnsongrass; [7]): 65 | Plant response rating, Goosegrass (goosegrass; [8]): 98 | Plant response rating, Goosegrass (goosegrass; [1]): 95 | Plant response rating, Goosegrass (goosegrass; [2]): 60 | Plant response rating, Goosegrass (goosegrass; [9]): 90 | Plant response rating, Goosegrass (goosegrass; [4]): 95 | Plant response rating, Goosegrass (goosegrass; [5]): 95 | Plant response rating, Goosegrass (goosegrass; [6]): 80 | Plant response rating, Goosegrass (goosegrass; [7]): 50
